Values joined by “and” are separate entries in the source; they are usually repeats but may differ in a detail not shown here. Identical values can stand only once.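 These data come from cells grown in 96-well plates and exposed to compound for 48 hours at five concentrations. GI50 is the concentration that inhibits growth by half. TGI: total growth inhibition.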
Assays:
Assay in all cases: growth of human tumour cells (NCI), 48 h
[1] = system: SW-620 colon
[2] = system: UACC-62 melanoma
[3] = system: UO-31 renal
[4] = system: HCC-2998 colon
[5] = system: SNB-78 CNS
[6] = system: MALME-3M melanoma
[7] = system: DLD-1 colon
[8] = system: UACC-257 melanoma
[9] = system: HCT-15 colon
[10] = system: A498 renal

Structure (SMILES)	GI50 [1] [nM]	TGI [1] [µM]	GI50 [2]	TGI [2] [µM]	GI50 [3] [µM]	TGI [3] [µM]	GI50 [4] [µM]	TGI [4] [µM]	TGI [5] [µM]	TGI [6] [µM]	TGI [7] [µM]	GI50 [8] [µM]	TGI [8] [µM]	GI50 [9] [nM]	TGI [9] [µM]	TGI [10] [µM]	GI50 [5] [µM]	GI50 [6] [nM]	GI50 [7] [µM]	GI50 [10] [µM]
Nc1nc(N)c2nc(CNc3ccc(C(=O)NC(CCCNC(=O)c4ccccc4C(=O)O)C(=O)O)cc3)cnc2n1 (stereo unspecified)	0.866	> 100	< 10 nM and 1.29 nM	> 100	0.00532	> 100	0.00132	> 100	> 100	> 100	> 100	0.0155	> 100	1.05	> 100	> 100	–	–	–	–
CN(C)c1n/c(=N/c2ncn[nH]2)ss1	–	> 100	–	> 100	–	> 100	–	> 100	> 100	> 100	> 100	–	> 100	–	> 100	> 100	–	–	–	–
COc1cc([C@@H]2c3cc4c(cc3[C@@H](NC(=O)c3cccc(F)c3)C3COC(=O)[C@@H]32)OCO4)cc(OC)c1O (stereo partly specified)	–	16.2	–	3.7	–	11.2	–	11.3	> 100	7.83	25.4	–	58.1	–	7.09	4.91	–	–	–	–
CN(C)c1ccc(/C=N\N2C(=O)c3ccccc3C2=O)cc1	–	> 100	–	> 100	–	> 100	–	> 100	> 100	> 100	> 100	–	> 100	–	> 100	> 100	–	–	–	–
COc1ccc(CNc2nc3c(NC(C)=O)cc(C(F)(F)F)cc3nc2-c2ccccc2)cc1OC	–	> 100	–	> 100	–	> 100	–	> 100	> 100	> 100	> 100	–	> 100	–	> 100	> 100	–	–	–	–
O=C(NO)C(=O)Nc1ccc(Cl)cc1[N+](=O)[O-]	–	> 100	–	> 100	–	> 100	–	> 100	> 100	> 100	> 100	–	> 100	–	> 100	> 100	–	–	–	–
Cc1cc(C)c(S(=O)(=O)ONC(=O)OC(C)(C)C)c(C)c1	–	> 100	–	> 100	–	> 100	–	> 100	> 100	> 100	> 100	–	> 100	–	> 100	> 100	–	–	–	–
COc1ccc(C(=O)/C=C/c2ccc(OCC(=O)N3CCN(c4ccccc4)CC3)cc2)cc1	–	> 100	–	> 100	–	> 94.7	–	> 100	54.8	> 100	> 100	–	> 100	–	> 100	> 93.9	–	–	–	–
CCC(C(=O)[O-])C(=O)[O-].CCC(C(=O)[O-])C(=O)[O-].N.N.NCCCCCCN.[Pt+4].[Pt+4]	900	1.71	7500 nM	14.6	7.06	13.6	8.29	15.8	29	1.9	13.9	6.14	14	5000	13.8	18.1	10.7	1000	3.79	8.85
O=C(NCCCCCCCCNC(=O)c1cccc2ccccc12)c1cccc2ccccc12	–	> 100	–	> 79.9	–	27.4	–	> 100	48.3	> 100	> 100	–	> 100	–	> 100	56.8	–	–	–	–
OC(c1ccccn1)C1CNc2ccccc21 (stereo unspecified)	–	> 100	–	> 100	–	> 100	–	> 100	> 100	> 100	> 100	–	> 100	–	> 100	> 100	–	–	–	–

Source: PubChem BioAssay (NCI)
